{"source": "patent US7846936B2", "about": "“Combinations for the treatment of diseases involving cell proliferation, migration or apoptosis of myeloma cells or angiogenesis” (Boehringer Ingelheim International GmbH, priority 2003, dated 2010)", "key": {"[1]": {"test_system": "SKOV-3 cells (human ovarian carcinoma)", "test": "SKOV-3 xenograft combination experiment", "type": "in vivo, nude mice (NMRI nu/nu)", "conditions": "SKOV-3 tumours in nude mice, 15 mg/kg daily per os, day 31", "protocol": "The following experiment was performed in order to investigate the effect of a combination therapy with suboptimal doses of an antagonist of at least one receptor selected from VEGFR 1 to 3, PDGFRα and β, FGFR1, 2 and 3, EGFR, HER2, IGF1R, HGFR or c-Kit, which is further an antagonist of a src tyrosine kinase family member, namely the di-chloride salt of (Z)-3-(1-(4-(N-((4-methyl-piperazin-1-yl)-methylcarbonyl)-N-methyl-amino)-phenylamino)-1-phenyl-methylene]-6-methoxycarbonyl-2-indolinone (compound referred to as C12(T)), which is the di-chloride salt of above exemplified compound (T), and a dual antagonist of the epidermal growth factor (EGF) receptor and of the human epidermal growth factor of type 2 (HE type 2) receptor, namely the compound 4-[(3-chloro-4-fluorophenyl)amino]-6-{[4-(N,N-dimethylamino)-1-oxo-2-buten-1-yl]amino}-7-((S)-tetrahydrofuran-3-yloxy)-quinazoline, (compound referred to as EGFR/HER2 inh., and described in WO 02/50043 as exemplified compound of Example 1(10)), on the reduction of tumour growth, in comparison to the mono-therapies at the same doses. […]\nDaily per os treatment was initially performed for 31 days. […] The calculated treated tumour to control tumour (T/C) ratio at this time point was 35% for the group treated with 15 mg/kg EGFR/HER2 inh., 32% for the group treated with 50 mg/kg C12(T), and 13% for the group treated with the combination. […]"}, "[2]": {"test_system": "FaDu tumours (human squamous carcinoma cells)", "test": "in vivo xenograft experiment, subcutaneous FaDu tumours", "conditions": "nude mice, 100 mg/kg orally twice weekly", "protocol": "By increasing the dose to 200 mg/kg orally twice weekly an even better anti-tumour effect is expected."}, "[3]": {"test_system": "IL-6 secretion by BMSC mono-cultures", "test": "IL-6 secretion of BMSC mono-cultures (Table III)", "type": "cell-based", "excerpt": "(§1) For comparison, the inhibition effect on BMSC mono-cultures (native) and, as control, the level of secretion of U266 mono-cultures, were also investigated."}, "[4]": {"test_system": "t(14;16) MM1.s myeloma cells", "test": "apoptosis of myeloma cells", "type": "cell-based"}, "oral bioavailability": {"test": "oral bioavailability", "type": "in vivo", "conditions": "mice"}, "Lyn": {"target": "Lyn (Homo sapiens, UniProt P07948)", "sequence (P07948 whole entry, species assumed)": "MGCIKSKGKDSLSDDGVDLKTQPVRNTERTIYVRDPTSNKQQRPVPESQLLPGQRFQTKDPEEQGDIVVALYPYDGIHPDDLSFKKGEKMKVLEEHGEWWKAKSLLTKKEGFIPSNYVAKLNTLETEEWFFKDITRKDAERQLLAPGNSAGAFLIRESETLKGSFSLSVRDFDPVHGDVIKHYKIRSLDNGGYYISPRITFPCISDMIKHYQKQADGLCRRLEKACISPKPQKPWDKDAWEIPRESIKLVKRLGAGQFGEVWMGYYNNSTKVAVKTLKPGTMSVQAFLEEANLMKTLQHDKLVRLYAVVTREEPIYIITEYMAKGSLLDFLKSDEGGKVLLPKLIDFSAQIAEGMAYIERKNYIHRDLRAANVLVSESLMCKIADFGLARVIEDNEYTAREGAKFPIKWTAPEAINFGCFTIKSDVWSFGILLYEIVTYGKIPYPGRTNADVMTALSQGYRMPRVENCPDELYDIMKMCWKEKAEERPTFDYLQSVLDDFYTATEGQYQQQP", "test": "kinase inhibition panel (Table I)", "type": "biochemical"}, "[5]": {"test_system": "IL-6 secretion in U-266 + BMSC co-cultures", "test": "IL-6 secretion in transwell and contact co-cultures of U-266 myeloma cells and BMSC cells (Table III)", "type": "cell-based", "excerpt": "as §1"}, "[6]": {"test_system": "IL-6 secretion by BMSC cells", "test": "IL-6 secretion by bone marrow stromal cells (Table II)", "type": "cell-based", "excerpt": "For comparison, the inhibition effect with inhibition of anti-bFGF (+anti-bFGF), anti-VEGF (+anti-VEGF) and a combination of anti-bFGF and anti-VEGF (+anti-VEGF+anti-bFGF) were also investigated."}, "CDK2": {"target": "CDK2 (Homo sapiens, UniProt P24941)", "test": "kinase inhibition panel (Table I)", "type": "biochemical"}, "[7]": {"test_system": "IL-6 secretion by BMSC cells", "test": "IL-6 secretion by bone marrow stromal cells (Table II)", "type": "cell-based", "remark": "listed apart in the source"}, "cell lines with t(4;14)": {"test_system": "cell lines with t(4;14)", "test": "apoptosis on cell lines with t(4;14)", "type": "cell-based", "conditions": "in vitro"}, "[8]": {"conditions": "clinically tested, also in conjunction with chemotherapy; cited from earlier work"}}, "note": "pIC50: −log10 of the molar value.", "data": [{"smiles": "CN(C)CC=CC(=O)Nc1cc2c(Nc3ccc(F)c(Cl)c3)ncnc2cc1O[C@H]1CCOC1", "note": "[EGFR/HER2 inh., 4-[(3-chloro-4-fluorophenyl)amino]-6-{[4-(N,N-dimethylamino)-1-oxo-2-buten-1-yl]amino}-7-((S)-tetrahydrofuran-3-yloxy)-quinazoline]", "values": [{"measurement": "treated tumour to control tumour (T/C) ratio", "setting": "[1]", "value": 35, "unit": "%"}]}, {"smiles": "CCS(=O)(=O)O.COC(=O)c1ccc2c(c1)NC(=O)/C2=C(\\Nc1ccc(N(C)C(=O)CN2CCN(C)CC2)cc1)c1ccccc1", "note": "[MES(T), monoethanesulfonate salt of 3-Z-[1-(4-(N-((4-methyl-piperazin-1-yl)-methylcarbonyl)-N-methyl-amino)-anilino)-1-phenyl-methylene]-6-methoxycarbonyl-2-indolinone]", "values": [{"measurement": "T/C (Tumour/Control) value", "setting": "[2]", "value": 31, "unit": "%"}, {"measurement": "IL-6 secretion, BMSC mono-cultures", "setting": "[3]; MES(T) 50 nM", "value": 213.4}, {"measurement": "IL-6 secretion, BMSC mono-cultures", "setting": "[3]; MES(T) 125 nM", "value": 192.1}, {"measurement": "IL-6 secretion, BMSC mono-cultures", "setting": "[3]; MES(T) 250 nM", "value": 69.9}, {"measurement": "IL-6 secretion, BMSC mono-cultures", "setting": "[3]; MES(T) 500 nM", "value": 38.6}, {"measurement": "effect on dexamethasone-induced apoptosis", "setting": "[4]; combined with dexamethasone", "value": "enhances the apoptosis induced by dexamethasone"}, {"measurement": "apoptosis of myeloma cells", "setting": "[4]; t(14;16) MM1.s myeloma cells, MES(T) alone", "value": "pro-apoptotic effects"}, {"measurement": "oral bioavailability", "setting": "oral bioavailability", "value": "orally bioavailable"}, {"measurement": "pIC50", "setting": "Lyn", "value": 6.71}, {"measurement": "IL-6 secretion, Contact U-266 + BMSC co-cultures", "setting": "[5]; MES(T) 125 nM", "value": 259.6}, {"measurement": "IL-6 secretion, Contact U-266 + BMSC co-cultures", "setting": "[5]; MES(T) 250 nM", "value": 199.4}, {"measurement": "IL-6 secretion, Contact U-266 + BMSC co-cultures", "setting": "[5]; MES(T) 500 nM", "value": 114.7}, {"measurement": "effect on IL-6 secretion of BMSC cultures stimulated by myeloma cells", "setting": "[5]; transwell and contact co-cultures", "value": "decrease to its basal (native) value the level of IL-6 secretion"}, {"measurement": "IL-6 secretion, Transwell U-266 + BMSC co-cultures", "setting": "[5]; MES(T) 50 nM", "value": 354.5}, {"measurement": "IL-6 secretion, Transwell U-266 + BMSC co-cultures", "setting": "[5]; MES(T) 125 nM", "value": 297.6}, {"measurement": "IL-6 secretion, Transwell U-266 + BMSC co-cultures", "setting": "[5]; MES(T) 250 nM", "value": 231.1}, {"measurement": "IL-6 secretion, Transwell U-266 + BMSC co-cultures", "setting": "[5]; MES(T) 500 nM", "value": 123.9}, {"measurement": "IL-6 secretion by BMSC cells", "setting": "[6]; +anti-VEGF + anti-bFGF, MES(T) 250 nM", "value": 45.0}, {"measurement": "IL-6 secretion by BMSC cells", "setting": "[6]; +anti-VEGF + anti-bFGF, MES(T) 500 nM", "value": 13.5}, {"measurement": "IL-6 secretion by BMSC cells", "setting": "[6]; +anti-bFGF, MES(T) 50 nM", "value": 81.3}, {"measurement": "IL-6 secretion by BMSC cells", "setting": "[6]; +anti-bFGF, MES(T) 125 nM", "value": 42.4}, {"measurement": "IL-6 secretion by BMSC cells", "setting": "[6]; +anti-bFGF, MES(T) 250 nM", "value": 33.0}, {"measurement": "pIC50", "setting": "CDK2", "value": "< 5.00"}, {"measurement": "IL-6 secretion by BMSC cells", "setting": "[7]; +VEGF, MES(T) 10 nM", "value": 122.3}, {"measurement": "IL-6 secretion by BMSC cells", "setting": "[7]; +VEGF, MES(T) 50 nM", "value": 130.7}, {"measurement": "IL-6 secretion by BMSC cells", "setting": "[7]; +VEGF, MES(T) 125 nM", "value": 141.0}, {"measurement": "IL-6 secretion by BMSC cells", "setting": "[7]; +VEGF, MES(T) 250 nM", "value": 65.5}, {"measurement": "IL-6 secretion by BMSC cells", "setting": "[7]; +VEGF, MES(T) 500 nM", "value": 14.8}, {"measurement": "IL-6 secretion by BMSC cells", "setting": "[7]; +anti-VEGF + anti-bFGF, MES(T) 10 nM", "value": 68.1}, {"measurement": "IL-6 secretion by BMSC cells", "setting": "[7]; +anti-VEGF + anti-bFGF, MES(T) 50 nM", "value": 63.4}, {"measurement": "IL-6 secretion by BMSC cells", "setting": "[7]; +anti-VEGF + anti-bFGF, MES(T) 125 nM", "value": 86.1}, {"measurement": "IL-6 secretion by BMSC cells", "setting": "[7]; +anti-VEGF, MES(T) 10 nM", "value": 148.6}, {"measurement": "IL-6 secretion by BMSC cells", "setting": "[7]; +anti-VEGF, MES(T) 50 nM", "value": 155.2}, {"measurement": "IL-6 secretion by BMSC cells", "setting": "[7]; +anti-VEGF, MES(T) 125 nM", "value": 166.7}, {"measurement": "IL-6 secretion by BMSC cells", "setting": "[7]; +anti-VEGF, MES(T) 250 nM", "value": 89.4}, {"measurement": "IL-6 secretion by BMSC cells", "setting": "[7]; +anti-VEGF, MES(T) 500 nM", "value": 16.2}, {"measurement": "IL-6 secretion by BMSC cells", "setting": "[7]; +anti-bFGF, MES(T) 10 nM", "value": 68.9}, {"measurement": "IL-6 secretion by BMSC cells", "setting": "[7]; +anti-bFGF, MES(T) 500 nM", "value": 20.2}, {"measurement": "IL-6 secretion by BMSC cells", "setting": "[7]; +bFGF, MES(T) 10 nM", "value": 150.5}, {"measurement": "IL-6 secretion by BMSC cells", "setting": "[7]; +bFGF, MES(T) 50 nM", "value": 179.7}, {"measurement": "IL-6 secretion by BMSC cells", "setting": "[7]; +bFGF, MES(T) 125 nM", "value": 91.2}, {"measurement": "IL-6 secretion by BMSC cells", "setting": "[7]; +bFGF, MES(T) 250 nM", "value": 76.9}, {"measurement": "IL-6 secretion by BMSC cells", "setting": "[7]; +bFGF, MES(T) 500 nM", "value": 43.4}, {"measurement": "IL-6 secretion by BMSC cells", "setting": "[7]; native, MES(T) 10 nM", "value": 130.2}, {"measurement": "IL-6 secretion by BMSC cells", "setting": "[7]; native, MES(T) 50 nM", "value": 170.4}, {"measurement": "IL-6 secretion by BMSC cells", "setting": "[7]; native, MES(T) 125 nM", "value": 97.5}, {"measurement": "IL-6 secretion by BMSC cells", "setting": "[7]; native, MES(T) 250 nM", "value": 76.5}, {"measurement": "IL-6 secretion by BMSC cells", "setting": "[7]; native, MES(T) 500 nM", "value": 39.6}, {"measurement": "apoptosis on cell lines with t(4;14)", "setting": "cell lines with t(4;14)", "value": "Direct induction of apoptosis"}]}, {"smiles": "Cc1cc(C)c(/C=C2\\C(=O)Nc3ccccc32)[nH]1", "note": "[SU5416]", "values": [{"measurement": "side effect in clinical testing", "setting": "[8]", "value": "thromboembolic events"}]}]}
